# Data from patent US6949561B1, “Steroid 3-O-sulphamate derivatives as inhibitors of oestrone sulphatase” (Sterix Limited, priority 1997, dated 2005).
# Assays:
# [1] = cited from earlier work
# [2] = molecular target: T1, dehydroepiandrosterone sulphatase (DHA-STS) (Rattus norvegicus, UniProt P15589); settings: administered either orally or subcutaneously; prior art; cited from earlier work
# T1 construct: host or cells: rat liver (in vivo dosing)
# T1 sequence (P15589 20-577): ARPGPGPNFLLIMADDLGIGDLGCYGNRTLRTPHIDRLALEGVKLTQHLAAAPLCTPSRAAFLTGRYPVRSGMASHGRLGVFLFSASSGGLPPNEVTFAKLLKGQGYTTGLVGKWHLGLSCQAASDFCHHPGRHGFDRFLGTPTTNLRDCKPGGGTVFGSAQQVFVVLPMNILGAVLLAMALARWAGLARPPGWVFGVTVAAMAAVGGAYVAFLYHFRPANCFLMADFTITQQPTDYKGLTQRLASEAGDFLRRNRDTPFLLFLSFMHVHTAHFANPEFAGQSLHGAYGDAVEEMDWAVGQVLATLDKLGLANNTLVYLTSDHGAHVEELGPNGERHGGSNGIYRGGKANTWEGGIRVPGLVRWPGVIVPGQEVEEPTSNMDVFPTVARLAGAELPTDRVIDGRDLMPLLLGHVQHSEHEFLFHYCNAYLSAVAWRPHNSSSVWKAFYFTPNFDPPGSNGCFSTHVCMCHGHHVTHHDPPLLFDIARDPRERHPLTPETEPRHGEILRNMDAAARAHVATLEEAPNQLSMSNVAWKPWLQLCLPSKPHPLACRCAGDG
# E1-STS enzyme = molecular target: T2, E1-STS enzyme (Homo sapiens, UniProt P08842); settings: prior art; cited from earlier work
# T2 sequence (P08842 22-583): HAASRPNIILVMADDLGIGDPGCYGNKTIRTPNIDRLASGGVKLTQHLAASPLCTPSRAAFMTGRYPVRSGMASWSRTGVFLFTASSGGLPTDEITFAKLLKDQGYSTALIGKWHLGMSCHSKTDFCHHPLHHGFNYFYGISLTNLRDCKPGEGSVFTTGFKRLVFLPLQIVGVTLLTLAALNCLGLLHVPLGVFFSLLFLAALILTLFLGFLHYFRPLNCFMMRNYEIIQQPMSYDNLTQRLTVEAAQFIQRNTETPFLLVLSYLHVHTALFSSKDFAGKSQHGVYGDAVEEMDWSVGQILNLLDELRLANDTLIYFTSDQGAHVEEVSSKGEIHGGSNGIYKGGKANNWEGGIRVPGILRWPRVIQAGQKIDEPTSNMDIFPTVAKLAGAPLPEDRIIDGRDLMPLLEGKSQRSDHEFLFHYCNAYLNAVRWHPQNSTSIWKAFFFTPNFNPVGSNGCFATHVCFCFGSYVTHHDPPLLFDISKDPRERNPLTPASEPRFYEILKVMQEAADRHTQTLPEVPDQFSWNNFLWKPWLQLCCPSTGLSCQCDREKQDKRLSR
# [3] = molecular target: T3, Rat Liver Sulphatase (E1-STS) (Rattus norvegicus, UniProt P15589); settings: administered either orally or subcutaneously; prior art; cited from earlier work
# T3 construct: from tissue; host or cells: rat liver after oral dosing
# T3 sequence (P15589 20-577): T1 sequence (P15589 20-577)
# [4] = molecular target: T3, Rat Liver Sulphatase (E1-STS); assay: In vivo inhibition (rat liver sulphatase); settings: 2 mg/Kg/day × 5 days, oral dose
# memory = settings: rats; prior art; cited from earlier work
# [5] = molecular target: T4, Steroid sulphatase (Steryl Sulphatase EC 3.1.6.2; E1-STS) in intact MCF-7 human breast cancer cells (Homo sapiens, UniProt P08842); settings: 0.1 μM; known from prior art; cited from earlier work
# T4 construct: endogenous in cells; host or cells: MCF-7 human breast cancer cells
# T4 sequence (P08842 22-583): T2 sequence (P08842 22-583)
compound,measurement,setting,value
"C[C@]12CC[C@@H]3c4ccc(OS(=O)(=O)O)cc4CC[C@H]3[C@@H]1CCC2=O [Compound E1S, oestrone sulphate]",half-life in blood,[1],10 to 12 h
"CC12CCC3c4ccc(OS(N)(=O)=O)cc4CCC3C1CCC2=O (stereo not drawn) [EMATE, oestrone-3-sulphamate]",inhibition of rat liver DHA-STS activity,[2],99%
same,mode of E1-STS inhibition,E1-STS enzyme,time- and concentration-dependent manner
same,inhibition of rat liver E1-STS activity,[3],99%
same,In Vivo Inhibition (Rat Liver Sulphatase),[4],99.1±0.2%
same,memory enhancing effect,memory,memory enhancing effect
same,inhibition of E1-STS activity in intact MCF-7 cells,[5],more than 99%
oestrone-3-N-sulphamate,mode of E1-STS inhibition,E1-STS enzyme,weaker non-time-dependent inactivators
oestrone-3-S-sulphamate,mode of E1-STS inhibition,E1-STS enzyme,weaker non-time-dependent inactivators
